# Measured values reported in publication PMC9623576, “Semisynthesis and Evaluation of Anti-Inflammatory Activity of the Cassane-Type Diterpenoid Taepeenin F and of Some Synthetic Intermediates” (Journal of Natural Products, 2022).
# How the values were obtained:
# [1] = tested on: RAW 264.7 monocyte/macrophage murine cells; experiment: MTT growth inhibition on RAW 264.7 cells; assay type: cell-based; conditions: Mus musculus, RAW264.7, RAW 264.7, MTT; for IC20: 20% growth inhibition; for IC80: 80% growth inhibition
# Method: A stock solution was frozen and stored at […]. Before the experiments, this solution was diluted in cell-culture medium to the adequate concentrations for each experiment. […] For nitrite assay, subcytotoxic concentrations (3/4IC50, 1/2IC50, and 1/4IC50), were used to ensure that the NO inhibitory potential was not due to a possible cytotoxic effect. The concentrations of 3/4IC50, 1/2IC50, and 1/4IC50 were used for the cell-cycle analysis. All experiments were measured and compared with control (untreated cells after 24, 48, or 72 h of treatment.)
# In all experiments, monolayer cells were grown to 80–90% confluence, in sterile cell culture flasks. All cell lines used were purchased from the cell bank of the University of Granada, Spain.
# The cytotoxicity assay was performed by the MTT (3-(4,5-dimethylthiazol-2-yl)-2,5-diphenyltetrazolium bromide) method.[21] […] All tested compounds were prepared in fresh growth medium. After 24 h, an additional 100 μL of medium with the corresponding concentrations of products (only medium in the control wells) was added to the corresponding wells, at various final concentrations (0–100 μg/mL). […] After 1.5 h of incubation, formazan was resuspended in 100 μL of DMSO, and each concentration was tested in triplicate.
# Cytotoxicity experimental data were fitted to a sigmoidal function (y = ymax/(x/a)^−b) by nonlinear regression. […] Similar analyses were performed to obtain the IC50 of NO production. All data shown here are representative of at least two independent experiments performed in triplicate. All quantitative data were summarized as the mean ± standard deviation (SD).
# [2] = tested on: LPS-stimulated RAW 264.7 macrophage murine cells; experiment: RAW 264.7 cell-cycle distribution, PI flow cytometry; assay type: cell-based; conditions: for effect on cell-cycle arrest induced by LPS: 72 h of treatment
# Text: Since the anti-inflammatory effect can be related to the ability to change the inflammatory processes induced by LPS in RAW 264.7 cells, including monocyte/macrophage cell differentiation and cell-cycle arrest,[22] we analyzed the cell-cycle distribution in these cells in response to LPS and compounds 16 and 21. The two compounds with the highest antiproliferative and important NO inhibitory effects were selected for this assay. For this purpose, flow cytometry by propidium iodide (PI) staining was used to measure DNA ploidy as well as the distribution of cells in every phase of the cell cycle (Figure S2).
# A stock solution was frozen and stored at […]. Before the experiments, this solution was diluted in cell-culture medium to the adequate concentrations for each experiment. For the antiproliferative assay in all cell lines, we determined the concentrations of compounds required for 20, 50, and 80% of inhibition cell growth, IC20, IC50, and IC80, concentrations, respectively, to analyze the complete range of cytotoxicity and to determine the graduated or acute response to these compounds. For nitrite assay, subcytotoxic concentrations (3/4IC50, 1/2IC50, and 1/4IC50), were used to ensure that the NO inhibitory potential was not due to a possible cytotoxic effect. The concentrations of 3/4IC50, 1/2IC50, and 1/4IC50 were used for the cell-cycle analysis. All experiments were measured and compared with control (untreated cells after 24, 48, or 72 h of treatment.)
# Cellular subpopulations, with different DNA contents, were visualized, using a fluorescence-activated cell sorter (FACS) at 488 nm in an Epics XL flow cytometer (Coulter Corporation, Hialeah, FL, USA). Changes in DNA levels are characteristic of cell-cycle arrest and cell differentiation.[36] […] Several controls were analyzed in parallel. […] Data were analyzed to determine the percentage of cells in each cell-cycle phase (G0/G1, S, and G2/M).
Compound,IC50 [1] [µM],IC20 [1] [µM],IC80 [1] [µM],effect on cell-cycle arrest induced by LPS [2],"proportion of cells in the S phase ([2]; LPS + compound, 72 h, 1/4IC50 to 3/4IC50, with respect to positive control) [%]"
"COC(=O)[C@]1(C)CCC[C@@]2(C)[C@H]1CC=C1C(C)=C(C(C)C)C(=O)C[C@@H]12 [Compound 16, (1R,4aR,10aR)-Methyl 7-isopropyl-1,4a,8-trimethyl-6-oxo-1,2,3,4,4a,4b,5,6,10,10a-decahydrophenanthrene-1-carboxylate]",33.1 ± 3.62,30.1 ± 0.49,33.81 ± 0.08,could revert the cell-cycle arrest induced by LPS,69
"COC(=O)[C@]1(C)CCC[C@]2(C)c3cc(O)c(C=O)c(C)c3CC[C@@H]12 [Compound 21, (1R,4aS,10aR)-Methyl 7-formyl-6-hydroxy-1,4a,8-trimethyl-1,2,3,4,4a,9,10,10a-octahydrophenanthrene-1-carboxylate]",21.1 ± 0.96,17.8 ± 1.34,25.3 ± 0.58,could revert the cell-cycle arrest induced by LPS,
